Reference: patent publication US20250059187A1, “COVALENTLY BINDING INHIBITORS OF G12S, G12D AND/OR G12E MUTANTS OF K-RAS GTPASE” (The Regents of the University of California, priority 2021, published 2025)

Tests used:
Experiment in all cases: Covalent modification of test protein after incubation with compound
Type in all cases: binding
Conditions in all cases: 24-h incubation with 100 μM compound at 23° C. at pH 7.5
wild type K-Ras = biological target: T1, wild type K-Ras (Homo sapiens, UniProt P01116)
T1 construct: human K-Ras (wildtype, aa 1-169); 6xHis tag + TEV cleavage site (N, cleaved yes); made in house; host or cells: E. coli BL21(DE3)

K-Ras G12D = biological target: T2, K-Ras G12D (Homo sapiens, UniProt P01116, G12D)
T2 construct: human K-Ras (G12D, aa 1-169); 6xHis tag + TEV cleavage site (N, cleaved yes); made in house; host or cells: E. coli BL21(DE3)

K-Ras G12E = biological target: T3, K-Ras G12E (Homo sapiens, UniProt P01116, G12E)
T3 construct: human K-Ras (G12E, aa 1-169); 6xHis tag + TEV cleavage site (N, cleaved yes); made in house; host or cells: E. coli BL21(DE3)

In the case of `C[C@@H]1C(=O)O[C@H]1C(=O)N1[C@@H]2CC[C@H]1CN(c1nc(OCC34CCCN3CCC4)nc3c(F)c(-c4cccc5cccc(Cl)c45)ncc13)C2` [(2R, 3S)-3], the “% covalent modification of wild type K-Ras” value (wild type K-Ras) was 0% and the “% covalent modification of K-Ras G12D” value (K-Ras G12D) was 100%.
In the case of `CC(C)[C@@H]1C(=O)O[C@H]1C(=O)N1[C@@H]2CC[C@H]1CN(c1nc(OCC34CCCN3CCC4)nc3c(F)c(-c4cccc5cccc(Cl)c45)ncc13)C2` [(2R, 3S)-4], the “% covalent modification of wild type K-Ras” value (wild type K-Ras) was 0% and the “% covalent modification of K-Ras G12D” value (K-Ras G12D) was 100%.
`C#Cc1cccc2cccc(-c3ncc4c(N5C[C@H]6CC[C@@H](C5)N6C(=O)[C@@H]5OC(=O)[C@H]5C(C)C)nc(OCC56CCCN5CCC6)nc4c3F)c12` [(2R, 3S)-5] was tested, and the “% covalent modification of wild type K-Ras” value (wild type K-Ras) was 0%, the “% covalent modification of K-Ras G12D” value (K-Ras G12D) was 100% and the “% covalent modification of K-Ras G12E” value (K-Ras G12E) was 0%.
`C#Cc1c(F)ccc2cc(O)cc(-c3ncc4c(N5C[C@H]6CC[C@@H](C5)N6C(=O)[C@@H]5OC(=O)[C@H]5C(C)C)nc(OC[C@@]56CCCN5C[C@H](F)C6)nc4c3F)c12` [(2R, 3S)-6] was tested, and the “% covalent modification of wild type K-Ras” value (wild type K-Ras) was 0%, the “% covalent modification of K-Ras G12D” value (K-Ras G12D) was 100% and the “% covalent modification of K-Ras G12E” value (K-Ras G12E) was 0%.
With `O=C1C[C@H](C(=O)N2[C@@H]3CC[C@H]2CN(c2nc(OCC45CCCN4CCC5)nc4c(F)c(-c5cccc6cccc(Cl)c56)ncc24)C3)O1` [(R)-2] the “% covalent modification of wild type K-Ras” value (wild type K-Ras) was 0% and the “% covalent modification of K-Ras G12D” value (K-Ras G12D) was 100%.
`Cc1ccc2[nH]ncc2c1-c1cc2ncnc(N3CC(C(=O)N[C@H]4COC4=O)C3)c2cc1Cl` [Compound 03-099] was tested, and the “% covalent modification of wild type K-Ras” value (wild type K-Ras) was 18.6%, the “% covalent modification of K-Ras G12D” value (K-Ras G12D) was 23.4% and the “% covalent modification of K-Ras G12E” value (K-Ras G12E) was 16.8%.
With `Cc1ccc2[nH]ncc2c1-c1cc2ncnc(N3CC(C(=O)N[C@@H]4COC4=O)C3)c2cc1Cl` [Compound 03-100] the “% covalent modification of wild type K-Ras” value (wild type K-Ras) was 22.6%, the “% covalent modification of K-Ras G12D” value (K-Ras G12D) was 17.7% and the “% covalent modification of K-Ras G12E” value (K-Ras G12E) was 18.5%.
With `Cc1ccc2[nH]ncc2c1-c1cc2ncnc(N3CCC(C(=O)N[C@H]4COC4=O)CC3)c2cc1Cl` [Compound 04-022] the “% covalent modification of wild type K-Ras” value (wild type K-Ras) was 4.6%, the “% covalent modification of K-Ras G12D” value (K-Ras G12D) was 4.1% and the “% covalent modification of K-Ras G12E” value (K-Ras G12E) was 2.1%.
With `Cc1ccc2[nH]ncc2c1-c1cc2ncnc(N3CCC(C(=O)N[C@@H]4COC4=O)CC3)c2cc1Cl` [Compound 04-023] the “% covalent modification of wild type K-Ras” value (wild type K-Ras) was 1.5%, the “% covalent modification of K-Ras G12D” value (K-Ras G12D) was 2.7% and the “% covalent modification of K-Ras G12E” value (K-Ras G12E) was 2.1%.
In the case of `CC1(c2cc(NCC(=O)N[C@H]3COC3=O)c(O)cc2Cl)CC1` [Compound 06-094], the “% covalent modification of wild type K-Ras” value (wild type K-Ras) was 0% and the “% covalent modification of K-Ras G12D” value (K-Ras G12D) was 0%.
With `CC1(c2cc(NCC(=O)N[C@@H]3COC3=O)c(O)cc2Cl)CC1` [Compound 06-095] the “% covalent modification of wild type K-Ras” value (wild type K-Ras) was 0% and the “% covalent modification of K-Ras G12D” value (K-Ras G12D) was 0%.
